Test results published in ChEMBL document CHEMBL2439965, “Dialkylimidazole inhibitors of Trypanosoma cruzi sterol 14α-demethylase as anti-Chagas disease agents” (Bioorg Med Chem Lett, 2013).
pEC50: −log10 of the molar value.

How the values were obtained:
Trypanosoma cruzi = experiment: microbe, parasite or virus in culture; conditions: Tulahuen, NIH3T3, 168 h
Description: Antitrypanosomal activity against Trypanosoma cruzi Tulahuen infected in 3T3 cells after 7 days by beta-galactosidase assay

physchem = conditions: octanol/water
Description: Lipophilicity, log P of the compound

Compound	pEC50 (Trypanosoma cruzi)	logP (physchem)
Fc1ccc(NCc2cncn2Cc2ccc(-c3ccccc3)cc2Cl)cc1Cl	7.31	5.9
Fc1ccc(NCc2cncn2Cc2ccc(-c3ccccc3)cc2F)cc1F	7.34	5
Fc1ccc(NCc2cncn2Cc2ccc(-c3ccccc3)cc2F)cc1	7.15	4.8
c1ccc(-c2ccc(Cn3cncc3CNc3ccc(NCCN4CCOCC4)c(-c4ccccc4)c3)cc2)cc1	6.94	5.9
Clc1ccc(NCc2cncn2Cc2ccc(-c3ccccc3)cc2Cl)cc1	7.08	5.7
Cc1cc(NCc2cnc(C)n2Cc2ccc(-c3ccccc3)cc2N)ccc1F	< 6.00	4.5
c1ccc(-c2ccc(Cn3cncc3CNc3ccc(OCCN4CCOCC4)c(-c4ccccc4)c3)cc2)cc1	7.45	5.9
Fc1ccc(Cn2cncc2CNc2ccc(F)c(F)c2)c(F)c1	6.67	3.5
Clc1ccc(NCc2cncn2Cc2cccc3cc[nH]c23)cc1-c1ccccc1	6.48	5.2
O=C(O)c1cc(-c2ccccc2)ccc1Cn1cncc1CNc1ccc(-c2nc3ccccc3s2)c(-c2ccccc2)c1	< 6.00	7.2
Fc1ccc(NCc2cncn2Cc2ccc(-c3ccccc3)cc2Cl)cc1F	7.42	5.4
COc1ccc(NCc2cncn2Cc2ccccc2)nc1-c1ccccc1	6.16	4.2
Nc1cc(N2CCOCC2)ccc1Cn1cncc1CNc1ccc(F)c(F)c1	6.45	2.2
Nc1ccccc1-c1ccc(Cn2cncc2CNc2ccc(-c3nc4ccccc4s3)c(-c3ccccc3)c2)cc1	7.12	7.6
Clc1ccc(NCc2cncn2Cc2ccc(-c3ccccc3)cc2)cc1-c1cccnc1	7.19	5.6
Clc1ccc(NCc2cncn2CC2CCNCC2)cc1-c1ccccc1	< 6.00	3.5
Cc1ncc(CNc2ccc(F)c(F)c2)n1Cc1ccc(-c2ccccc2)cc1N	< 6.00	4.1

Compound	pEC50 (Trypanosoma cruzi)	logP (physchem)
CC[C@@H]([C@H](C)O)n1ncn(-c2ccc(N3CCN(c4ccc(OC[C@@H]5CO[C@@](Cn6cncn6)(c6ccc(F)cc6F)C5)cc4)CC3)cc2)c1=O [POSACONAZOLE]	> 9.00	
Cc1ncc(CNc2ccc(F)c(Cl)c2)n1Cc1ccc(-c2ccccc2)cc1N	< 6.00	4.6
Clc1ccc(NCc2cncn2Cc2ccc(-c3ccccc3)cc2)cc1-n1cccc1	7.52	5.6
COc1cc(-c2ccccc2)ccc1Cn1cncc1CNc1ccc(Cl)c(-c2ccccc2)c1	7.45	6.6
Clc1ccc(NCc2cncn2Cc2ccc(-c3ccccc3)cc2)cc1N1CCCCC1	7.27	6.1
Nc1ccccc1Cn1cncc1CNc1ccc(F)c(-c2ccccc2)c1	6.63	3.8
Fc1ccc(NCc2cncn2Cc2ccc(F)cc2F)cc1	6.45	3.3
Fc1ccc(NCc2cncn2Cc2ccc(-c3ccccc3)cc2F)cc1Cl	7.31	5.4
COc1cc(-c2ccccc2)ccc1Cn1cncc1CNc1ccc(-c2nc3ccccc3s2)c(-c2ccccc2)c1	7.57	8.2
Cc1ccc(NCc2cncn2Cc2ccc(-c3ccccc3)cc2)cc1-c1c(F)cccc1F	7.44	7
Clc1ccc(-c2ccc(Cn3cncc3CNc3ccc(-c4nc5ccccc5s4)c(-c4ccccc4)c3)cc2)cc1	7.31	9
N#Cc1ccc(-c2cc(NCc3cncn3Cc3ccc(-c4ccccc4)cc3)ccc2-c2nc3ccccc3s2)cc1	7.49	8.2
Cc1cc(NCc2cncn2Cc2ccc(-c3ccccc3)cc2F)ccc1F	7.28	5.3
Oc1ccccc1-c1ccc(Cn2cncc2CNc2ccc(-c3nc4ccccc4s3)c(-c3ccccc3)c2)cc1	6.91	8.1
c1ccc(-c2ccc(Cn3cncc3CNc3ccc(OCCN4CCCCC4)c(-c4ccccc4)c3)cc2)cc1	6.50	6.9
Cc1ccc(-c2ccc(Cn3cncc3CNc3ccc(-c4nc5ccccc5s4)c(-c4ccccc4)c3)cc2)cc1	7.30	8.9
Cc1ncc(CNc2ccc(F)cc2)n1Cc1ccc(-c2ccccc2)cc1N	< 6.00	4

Further compounds by rising pEC50 (Trypanosoma cruzi), results first:

pEC50 (Trypanosoma cruzi)	logP (physchem)	Compound
7.57	5.6	Clc1ccc(NCc2cncn2Cc2ccc(-c3ccccc3)cc2)cc1-c1ccncc1
7.59	5.8	Cc1cc(NCc2cncn2Cc2ccc(-c3ccccc3)cc2Cl)ccc1F
7.61	5.9	Nc1cc(-c2ccccc2)ccc1Cn1cncc1CNc1ccc(Cl)c(-c2ccccc2N2CCOCC2)c1
7.67	7.4	c1ccc(-c2cc(NCc3cncn3Cc3ccc(-c4ccco4)cc3)ccc2-c2nc3ccccc3s2)cc1
7.68	4.7	Nc1cc(-c2ccccc2)ccc1Cn1cncc1CNc1ccc(Cl)c(-c2ccccc2N2CCCCC2)c1
7.71	7.5	c1ccc(-c2cc(NCc3cncn3Cc3ccc(-c4ccccn4)cc3)ccc2-c2nc3ccccc3s2)cc1
7.84	4.7	COc1ccc(Cn2cncc2CNc2ccc(F)c(-c3ccccc3)c2)c(N)c1
7.89	4.5	Nc1cc(Cl)ccc1Cn1cncc1CNc1ccc(F)c(-c2ccccc2)c1
7.90	5.8	COc1ccc(NCc2cncn2Cc2ccc(-c3ccccc3)cc2)nc1-c1ccccc1
7.92	6.5	Fc1cc(-c2ccccc2)ccc1Cn1cncc1CNc1ccc(F)c(-c2ccccc2)c1
7.95	8.2	c1ccc(-c2cc(NCc3cncn3Cc3ccc(-c4cccs4)cc3)ccc2-c2nc3ccccc3s2)cc1
8.00	8.2	COc1ccc(-c2cc(NCc3cncn3Cc3ccc(-c4ccccc4)cc3)ccc2-c2nc3ccccc3s2)cc1
8.05	5	Nc1cc(-c2ccccc2)ccc1Cn1cncc1CNc1ccc(Cl)c(Cl)c1
8.27	8.9	Cc1cccc(-c2ccc(Cn3cncc3CNc3ccc(-c4nc5ccccc5s4)c(-c4ccccc4)c3)cc2)c1
8.42	4.8	Nc1cc(-c2ccccc2)ccc1Cn1cncc1CNc1ccc(Cl)c(-n2cccc2)c1
8.49	4	Nc1cc(-c2ccccc2)ccc1Cn1cncc1CNc1ccc(F)c(F)c1
8.68	4.3	Nc1cc(-c2ccccc2)ccc1Cn1cncc1CNc1ccc(Cl)cc1
8.82		Nc1cc(-c2ccccc2)ccc1Cn1cncc1CNc1ccc(OCCN2CCOCC2)c(-c2ccc(Cl)cc2)c1
8.85		Nc1cc(Cl)ccc1Cn1cncc1CNc1ccc(-c2nc3ccccc3s2)c(-c2ccccc2)c1
8.92	4.3	Nc1cc(-c2ccccc2)ccc1Cn1cncc1CNc1ccc(F)c(Cl)c1
8.96	3.8	Nc1cc(-c2ccccc2)ccc1Cn1cncc1CNc1ccc(F)cc1
9.00	7.6	Nc1cc(-c2ccccc2)ccc1Cn1cncc1CNc1ccc(-c2nc3ccccc3s2)c(-c2ccccc2)c1
9.40	5.8	Nc1cc(-c2ccccc2)ccc1Cn1cncc1CNc1ccc(F)c(-c2c(F)cccc2F)c1
